Measured values published in patent US20170209447A1, “Use of PNP Inhibitor to Treat Relapse of Malignancy after Hematopoietic Stem Cell Transplant” (Nitor Therapeutics, priority 2014, published 2017).
Like-named read-outs stand apart in the source and are kept apart here.

Tests used:
B16 tumors [1] = experiment: PNPi as anticancer agent in mouse melanoma model; type: in vivo, C57BL/6 mice
Experimental: Evaluation of PNPi as Anticancer Agent in Mouse Melanoma Model.
Treatment with the NTR001 was initiated on day 6 after injection of tumor cells. Tumor volume and survival were recorded every 3-4 days.

B16 tumors [2] = conditions: NTR001 60 mg/kg PO; CTLA4-Ab 100, 50, 50 ug IP; days 0, 3 and 6; FIG. 11

O=c1[nH]cnc2c([C@@H]3N[C@H](CO)[C@@H](O)[C@H]3O)c[nH]c12 [NTR001, 7-[(2S,3S,4R,5R)-3,4-dihydroxy-5-(hydroxymethyl)-2-pyrrolidinyl]-1,5-dihyro-4-H-pyrrolo-[3,2-d]pyrimidin-4-one]
survival (B16 tumors [1]; NTR001 as single agent (30 mg/kg PO week on/off; 5 mg/kg drinking water 28 days), FIG. 6): 0-20%
tumor volume (B16 tumors [1]; NTR001 treatment initiated day 6 after tumor cells, 30 mg/kg PO week on/off or 5 mg/kg drinking water, FIG. 5): significant decrease
tumor volume (B16 tumors [2]): decrease in tumor volume but was not statistically significant
